In one data set the test system is Vero cells. Put plainly: Cell viability assay (MTT) in Vero cells. Format: cell-based. The conditions noted are these: Vero cells. Here is the method: (§1) The cell toxicity induced by the three tested fractions and the isolated flavonoids was evaluated in a growing Vero cell. […] To this end, Vero cells (1 × 10^4 cells/well) were plated in 96-well microplates 24 h beforehand. […] After a period of 120 h at 37 °C in a 5% CO2 atmosphere, the culture medium was removed from the plate, and 50 μL of recently prepared MTT solution (1 mg/mL) was then added. The 96-well microplate was placed in a CO2 incubator for 4 h at 37 °C. After this period, the MTT solution was replaced by DMSO. Then, the optical density at 540 nm (OD540) was measured using a BioTekTM ELx800TM 96-well plate reader (BioTek Instruments Inc., Winooski, VT. The OD540 subtraction of treated cells compared to untreated cells was calculated. […] The CC20 value was empirically defined as the maximum safe limit to perform the antiviral screening. Results were expressed as mean ± SD of three independent replicates. The differences in viral titer of treated and untreated infected cells were analyzed according to ANOVA followed by the Dunnett test using GraphPad Prism software v.5.01 (GraphPad Software, La Jolla, CA, USA). The drug concentration that reduced viral titer by 50% (IC50) was defined using the same software. […] The CC50 and CC20 values were also calculated using GraphPad Prism software in a non-linear regression interpretation. The selective index (SI) was based on the ratio math of CC50 and IC50 values. Data were reported as the mean ± standard deviation (SD) of three independent experiments. Significance was only considered when p < 0.05.

The subject of a further data set is ZIKV. Put plainly: Post-treatment antiviral assay, viral titration by TCID50, ZIKV-infected Vero cells. In kind it is cell-based. The conditions noted are these: for % ZIKV Inhibition / IC50: Vero cells; for % ZIKV Inhibition: MOI 0.1, treated with CC20 of each sample for 120 h, TCID50; for IC50 / SI: ZIKV; for IC50: MOI 0.1, concentration to reduce viral titer by 50%; for SI: ratio of CC50 and IC50; for ZIKV-induced cytopathic effect in Vero cell monolayers: treatment at CC20, microscopy, Figure 4B,C. As to the method:
(§2) One day prior to infection with the ZIKV or DENV strain, Vero cells were seeded in 24-well plates (5 × 10^4 cells/well). The infection was performed at the multiplicity of infection (MOI) of 0.1 for 2 h at 37 °C in 5% CO2. After virus internalization, the inoculum was removed, and the cells were washed using the growth medium. […] 6-MMPr, used as positive control drug, was also included as a drug treatment in some wells [33]. Controls of mock (non-infected) and infected non-treated cells were included. At 120 h post-infection (hpi), the cytopathic effect was evaluated using an inverted microscope (AE2000 binocular microscope, Motic, Hong Kong), and cells were photographed with a smartphone. The cell supernatant was harvested at 120 hpi and stored at −80 °C for posterior virus titration, using the TCID50 method.
(§3) The TCID50 method was used here to perform viral titration. The titer values were expressed as log10 TCID50/mL. One day prior to titration, Vero cells were seeded in a 96-well plate (1 × 10^4 cells/well) at 37 °C in a 5% CO2 incubator. The cell supernatants that were previous stored (see item 2.5—cytopathic effect assay) were serially diluted 10-fold in DMEM and submitted to the cell monolayer. After incubation for 5 days at 37 °C and 5% CO2, the cytopathic effect was observed through an inverted optical microscope, and the reduction in viral titer was defined according to Reed–Muench parameters.
(§4) The differences in viral titer of treated and untreated infected cells were analyzed according to ANOVA followed by the Dunnett test using GraphPad Prism software v.5.01 (GraphPad Software, La Jolla, CA, USA). The drug concentration that reduced viral titer by 50% (IC50) was defined using the same software. This represents the compound concentration required to reduce ZIKV or DENV titer by 50% when compared with the non-treated cells. The CC50 and CC20 values were also calculated using GraphPad Prism software in a non-linear regression interpretation. The selective index (SI) was based on the ratio math of CC50 and IC50 values. Data were reported as the mean ± standard deviation (SD) of three independent experiments. Significance was only considered when p < 0.05.
Background: Protection from cytopathic effect is a common read-out in antiviral testing.

Another data set relates to DENV-2. Put plainly: Post-treatment antiviral assay, viral titration by TCID50, DENV-infected Vero cells. In kind it is cell-based. To be noted: for IC50 / SI: DENV; for IC50 / % DENV-2 Inhibition: Vero cells; for IC50: MOI 0.1, concentration to reduce viral titer by 50%; for SI: ratio of CC50 and IC50; for % DENV-2 Inhibition: MOI 0.1, treated with CC20 of each sample for 120 h, TCID50. As to the method:
as §2, §3, §4

The subject of another data set is Hela cells. More on the design: method as in PMID 29354400. The conditions noted are these: at the tested concentrations, ref [59]; cited from earlier work.
Data set [1] in a line: Cell viability assay (MTT) in Vero cells. In kind it is cell-based. The conditions noted are these: African green monkey. Here is the method:
as §1

The mark [2] stands for this setting: Table 3, non-toxic concentration used in the antiviral assays.

The structures appear in SMILES notation.

Consider `CSc1ncnc2c1ncn2[C@@H]1O[C@H](CO)[C@@H](O)[C@H]1O` [6-MMPr, 6-methylmercaptopurine riboside, reference compound], for which it took 291 µM to reach half-maximal cytotoxicity with Vero cells (Table 2, MTT method, 120 h) (CC50). In addition, it took 291 µM to reach half-maximal cytotoxicity in the data set on Vero cells (Table 3) (CC50). For the same molecule, the CC20 in the data set on Vero cells (setting [2]) was determined as 60.5 μM/mL. In the data set on ZIKV, the “% ZIKV Inhibition” value turned out to be 51.5%, inhibition was half-maximal at 24.5 µM (IC50) and the SI was found to be 11.9. In the data set on DENV-2, the IC50 (in general, the concentration that inhibits the measured activity by half) stood at 18.2 µM; the SI stood at 16.0; the “% DENV-2 Inhibition” value is recorded as 48.3%.

On to `COc1cc(O)c2c(c1)O[C@H](c1ccc(O)cc1)CC2=O` [7-O-methyl naringenin], for which the cell viability – broadly, a read-out of living cells in per cent, often relative to untreated cells – in the data set on Hela cells is recorded as 100%. Also, the midpoint of cytotoxicity in data set [1], the CC50 at 120 h, lay at 240 µM. In the data set on ZIKV, the “% ZIKV Inhibition” value was 30.3%, the SI worked out at 18.7 and the “ZIKV-induced cytopathic effect in Vero cell monolayers” value is “prevented morphological modifications”. Moreover, it took 12.8 µM to reach half-maximal inhibition in the data set on ZIKV (Zika virus) (IC50). For the same molecule, in the data set with DENV-2, the SI was found to be 7.7 and the “% DENV-2 Inhibition” value was found to be 51.6%. The half-maximal inhibitory concentration (IC50) with DENV-2 (Dengue virus, DENV2) stood at 30.9 µM. The “DENV-induced cytopathic effect in Vero cell monolayers” value in the data set on DENV-2 (treatment at CC20, microscopy, Figure 5B,C) was “prevented morphological modifications”.

As to `O=C1C[C@@H](c2ccc(O)cc2)Oc2cc(O)cc(O)c21` [Naringenin], the half-maximal cytotoxic concentration (CC50) (usually the concentration at which the toxic effect on the cells reaches its halfway point) at 120 h in data set [1] worked out at 242 µM. The CC20 in the data set on Vero cells (Table 2, MTT method, 120 h) amounted to 86.43 µM/mL; in the data set on Vero cells (setting [2]) it was 86.43 μM/mL. The “% ZIKV Inhibition” value in the data set with ZIKV amounted to 34.7%. For the same molecule, the half-maximal inhibitory concentration (IC50) in the data set with ZIKV (Zika virus) was 58.9 µM; in the data set with DENV-2 (Dengue virus, DENV2), 42.9 µM. In the data set with ZIKV, the “ZIKV-induced cytopathic effect in Vero cell monolayers” value was “prevented morphological modifications”. Also, the “% DENV-2 Inhibition” value in the data set on DENV-2 is 61.5%.

Source of the values: publication PMC10609720, “Antiviral Activity of Flavonoids from Geopropolis of the Brazilian Jandaira Bee against Zika and Dengue Viruses” (Pharmaceutics, 2023).
